Reference: US20260022142A1, “MACROCYCLIC IMMUNOMODULATORS” (Bristol-Myers Squibb Company, priority 2022, published 2026)
Bridge positions count the residues as written; N and C are the ends. Square brackets hold non-standard residues; d marks the D form. Peptide text beside a SMILES is read from it. * marks the point of attachment. ξ: configuration not given here. Phe(4-COOH) = N[C@@H](Cc1ccc(C(=O)O)cc1)C(=O)O; Bip = N[C@@H](Cc1ccc(-c2ccccc2)cc1)C(=O)O; Phe(3-Me) = Cc1cccc(C[C@H](N)C(=O)O)c1; hArg = N=C(N)NCCCC[C@H](N)C(=O)O; Cha = N[C@@H](CC1CCCCC1)C(=O)O; Cit = NC(=O)NCCC[C@H](N)C(=O)O; Thr(3ξ) = CC(O)[C@H](N)C(=O)O; 12Ado = NCCCCCCCCCCCC(=O)O; Carboxymethyl = O=C(O)C*; Orn = NCCC[C@H](N)C(=O)O; Aun = NCCCCCCCCCCC(=O)O; Dab = NCC[C@H](N)C(=O)O; Dap = NC[C@H](N)C(=O)O; AEEA = NCCOCCOCC(=O)O

Each compound was assayed against T1, PD-1/PD-L1 interaction (PE-labeled human PD-L1-Ig binding to Jurkat cell line over-expressing human PD-1) (Homo sapiens, UniProt Q15116) (assay: Jurkat-PD-1 Cell Binding High-Content Screening Assay (CBA)). Conditions: Jurkat cell line over-expressing human PD-1; PE-labeled PD-L1-Ig 20 nM final; read-out: Jurkat hPD1-PDL1 IC50.
T1 construct: expressed in transfected cells; host or cells: Jurkat
T1 sequence (Q15116 25-288): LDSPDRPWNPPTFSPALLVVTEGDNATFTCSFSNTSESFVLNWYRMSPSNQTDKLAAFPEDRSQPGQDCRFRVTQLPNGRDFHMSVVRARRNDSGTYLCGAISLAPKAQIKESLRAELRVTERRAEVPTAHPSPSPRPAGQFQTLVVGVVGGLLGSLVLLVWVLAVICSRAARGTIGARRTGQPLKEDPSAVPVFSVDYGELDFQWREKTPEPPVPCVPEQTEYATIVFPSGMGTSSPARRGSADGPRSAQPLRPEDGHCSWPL
Type: cell-based
Procedure, shortened: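 Binding of fluorescent PD-L1-Ig (20 nM final) to Jurkat-PD-1 cells was measured by automated imaging after 1 h, following a 2 h compound pre-treatment at 37° C.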
Work on `CC(C)C[C@H]1NC(=O)[C@H](CCCN)NC(=O)[C@H](C(C)C)NC(=O)[C@H](Cc2ccc(-c3ccccc3)cc2)NC(=O)[C@H](C(C)C)NC(=O)[C@H](Cc2c[nH]c3ccccc23)NC(=O)[C@H](CC(=O)O)NC(=O)[C@H](Cc2ccc(OCC(=O)O)cc2)NC(=O)[C@H](CCCCNC(=N)N)NC(=O)CSC[C@@H](C(=O)NCC(=O)N[C@@H](CCCN)C(=O)NCCCCCCCCCCCC(=O)O)NC(=O)[C@H](CN)NC(=O)[C@H](C(C)C)NC(=O)[C@H](CC2CCCCC2)NC(=O)[C@H](CCN)NC1=O` [Compound 3175] ({CH2CO}-[hArg]Y(Carboxymethyl)DWV[Bip]V[Orn][dL][Dab][Cha]V[Dap]CG[Orn][12Ado]-OH; thioether N-14) yielded an IC50 of 17.7 nM.
Work on `CC(C)C[C@H]1NC(=O)[C@H](CCCN)NC(=O)[C@H](C(C)C)NC(=O)[C@H](Cc2ccc(-c3ccccc3)cc2)NC(=O)[C@H](C(C)C)NC(=O)[C@H](Cc2c[nH]c3ccccc23)NC(=O)[C@H](CC(=O)O)NC(=O)[C@H](Cc2ccc(OCC(=O)O)cc2)NC(=O)[C@H](CCCCNC(=N)N)NC(=O)CSC[C@@H](C(=O)NCC(=O)N[C@@H](CCCN)C(=O)NCCCCCCCCCCCC(=O)O)NC(=O)[C@H](CN)NC(=O)[C@H](C(C)C)NC(=O)[C@H](CC2CCCCC2)NC(=O)[C@H](CC(N)=O)NC1=O` [Compound 3176] ({CH2CO}-[hArg]Y(Carboxymethyl)DWV[Bip]V[Orn][dL]N[Cha]V[Dap]CG[Orn][12Ado]-OH; thioether N-14) yielded an IC50 of 33.4 nM.
`CC(C)C[C@H]1NC(=O)[C@H](CCCN)NC(=O)[C@H](C(C)C)NC(=O)[C@H](Cc2ccc(-c3ccccc3)cc2)NC(=O)[C@H](C(C)C)NC(=O)[C@H](Cc2c[nH]c3ccccc23)NC(=O)[C@H](CC(=O)O)NC(=O)[C@H](Cc2ccc(OCC(=O)O)cc2)NC(=O)[C@H](CCCCNC(=N)N)NC(=O)CSC[C@@H](C(=O)N[C@@H](CCN)C(=O)NCCOCCOCC(=O)N[C@@H](CCCN)C(=O)NCCCCCCCCCCCC(=O)O)NC(=O)[C@H](CO)NC(=O)[C@H](C(C)C)NC(=O)[C@H](CC2CCCCC2)NC(=O)[C@H](CC(N)=O)NC1=O` [Compound 3177] ({CH2CO}-[hArg]Y(Carboxymethyl)DWV[Bip]V[Orn][dL]N[Cha]VSC[Dab][AEEA][Orn][12Ado]-OH; thioether N-14) was tested, and the IC50 was 27.3 nM.
`CC(C)C[C@H]1NC(=O)[C@H](CCCN)NC(=O)[C@H](C(C)C)NC(=O)[C@H](Cc2ccc(-c3ccccc3)cc2)NC(=O)[C@H](C(C)C)NC(=O)[C@H](Cc2c[nH]c3ccccc23)NC(=O)[C@H](CC(=O)O)NC(=O)[C@H](Cc2ccc(OCC(=O)O)cc2)NC(=O)[C@H](CCCCNC(=N)N)NC(=O)CSC[C@@H](C(=O)N[C@@H](CCCN)C(=O)NCCOCCOCC(=O)N[C@@H](CCCN)C(=O)NCCCCCCCCCCC(=O)O)NC(=O)[C@H](CO)NC(=O)[C@H](C(C)C)NC(=O)[C@H](CC2CCCCC2)NC(=O)[C@H](CC(N)=O)NC1=O` [Compound 3178] ({CH2CO}-[hArg]Y(Carboxymethyl)DWV[Bip]V[Orn][dL]N[Cha]VSC[Orn][AEEA][Orn][Aun]-OH; thioether N-14) gave an IC50 of 14.8 nM.
`CC(C)C[C@H]1NC(=O)[C@H](CCCN)NC(=O)[C@H](C(C)C)NC(=O)[C@H](Cc2ccc(-c3ccccc3)cc2)NC(=O)[C@H](C(C)C)NC(=O)[C@H](Cc2c[nH]c3ccccc23)NC(=O)[C@H](CC(=O)O)NC(=O)[C@H](Cc2ccc(OCC(=O)O)cc2)NC(=O)[C@H](Cc2ccc(OCC(=O)O)cc2)NC(=O)CSC[C@@H](C(=O)NCC(=O)NCCOCCOCC(=O)N[C@@H](CCCN)C(=O)NCCCCCCCCCCCC(=O)O)NC(=O)[C@H](CO)NC(=O)[C@H](C(C)C)NC(=O)[C@H](CC2CCCCC2)NC(=O)[C@H](CCN)NC1=O` [Compound 3179] ({CH2CO}-Y(Carboxymethyl)Y(Carboxymethyl)DWV[Bip]V[Orn][dL][Dab][Cha]VSCG[AEEA][Orn][12Ado]-OH; thioether N-14) gave an IC50 of 16.1 nM.
Compound `CC(C)C[C@H]1NC(=O)[C@H](CCCN)NC(=O)[C@H](C(C)C)NC(=O)[C@H](Cc2ccc(-c3ccccc3)cc2)NC(=O)[C@H](C(C)C)NC(=O)[C@H](Cc2c[nH]c3ccccc23)NC(=O)[C@H](CC(=O)O)NC(=O)[C@H](Cc2ccc(C(=O)O)cc2)NC(=O)[C@H](Cc2ccc(OCC(=O)O)cc2)NC(=O)CSC[C@@H](C(=O)NCC(=O)NCCOCCOCC(=O)N[C@@H](CCCN)C(=O)NCCCCCCCCCCCC(=O)O)NC(=O)[C@H](CO)NC(=O)[C@H](C(C)C)NC(=O)[C@H](CC2CCCCC2)NC(=O)[C@H](CCN)NC1=O` [Compound 3180] ({CH2CO}-Y(Carboxymethyl)[Phe(4-COOH)]DWV[Bip]V[Orn][dL][Dab][Cha]VSCG[AEEA][Orn][12Ado]-OH; thioether N-14) has an IC50 of 16.8 nM.
In the case of `CC(C)C[C@H]1NC(=O)[C@H](CCCN)NC(=O)[C@H](C(C)C)NC(=O)[C@H](Cc2ccc(-c3ccccc3)cc2)NC(=O)[C@H](C(C)C)NC(=O)[C@H](Cc2c[nH]c3ccccc23)NC(=O)[C@H](CC(=O)O)NC(=O)[C@H](Cc2ccc(OCC(=O)O)cc2)NC(=O)[C@H](CCCNC(=N)N)NC(=O)CSC[C@@H](C(=O)NCC(=O)NCCOCCOCC(=O)N[C@@H](CCCN)C(=O)NCCCCCCCCCCCC(=O)O)NC(=O)[C@H](CO)NC(=O)[C@H](C(C)C)NC(=O)[C@H](CC2CCCCC2)NC(=O)[C@H](CCN)NC1=O` [Compound 3181] ({CH2CO}-RY(Carboxymethyl)DWV[Bip]V[Orn][dL][Dab][Cha]VSCG[AEEA][Orn][12Ado]-OH; thioether N-14), the IC50 is reported as 7.6 nM.
`Cc1cccc(C[C@@H]2NC(=O)[C@H](CC(=O)O)NC(=O)[C@H](Cc3ccc(OCC(=O)O)cc3)NC(=O)[C@H](CCCCNC(=N)N)NC(=O)CSC[C@@H](C(=O)NCC(=O)N[C@@H](CCC(=O)O)C(=O)NCCCCCCCCCCCC(=O)O)NC(=O)[C@H](CO)NC(=O)[C@H](C(C)C)NC(=O)[C@H](CC3CCCCC3)NC(=O)[C@H](C(C)O)NC(=O)[C@@H](CC(C)C)NC(=O)[C@H](CCCN)NC(=O)[C@H](CCCNC(N)=O)NC(=O)[C@H](Cc3ccc(-c4ccccc4)cc3)NC(=O)[C@H](C(C)C)NC2=O)c1` (stereo partly drawn) [Compound 3182] ({CH2CO}-[hArg]Y(Carboxymethyl)D[Phe(3-Me)]V[Bip][Cit][Orn][dL][Thr(3ξ)][Cha]VSCGE[12Ado]-OH; thioether N-14) showed an IC50 of 45.9 nM.
For `Cc1cccc(C[C@@H]2NC(=O)[C@H](CC(=O)O)NC(=O)[C@H](Cc3ccc(OCC(=O)O)cc3)NC(=O)[C@H](CCCCNC(=N)N)NC(=O)CSC[C@@H](C(=O)NCC(=O)N[C@@H](CCC(=O)O)C(=O)NCCCCCCCCCCCC(=O)O)NC(=O)[C@H](CO)NC(=O)[C@H](C(C)C)NC(=O)[C@H](CC3CCCCC3)NC(=O)[C@H](CCN)NC(=O)[C@@H](CC(C)C)NC(=O)[C@H](CCCN)NC(=O)[C@H](CCCNC(N)=O)NC(=O)[C@H](Cc3ccc(-c4ccccc4)cc3)NC(=O)[C@H](C(C)C)NC2=O)c1` [Compound 3183] ({CH2CO}-[hArg]Y(Carboxymethyl)D[Phe(3-Me)]V[Bip][Cit][Orn][dL][Dab][Cha]VSCGE[12Ado]-OH; thioether N-14), the IC50 was 821 nM.
With `Cc1cccc(C[C@@H]2NC(=O)[C@H](CC(=O)O)NC(=O)[C@H](Cc3ccc(OCC(=O)O)cc3)NC(=O)[C@H](CCCCNC(=N)N)NC(=O)CSC[C@@H](C(=O)NCC(=O)NCCOCCOCC(=O)N[C@@H](CCC(=O)O)C(=O)NCCCCCCCCCCCC(=O)O)NC(=O)[C@H](CO)NC(=O)[C@H](C(C)C)NC(=O)[C@H](CC3CCCCC3)NC(=O)[C@H](CCN)NC(=O)[C@@H](CC(C)C)NC(=O)[C@H](CCCN)NC(=O)[C@H](C(C)C)NC(=O)[C@H](Cc3ccc(-c4ccccc4)cc3)NC(=O)[C@H](C(C)C)NC2=O)c1` [Compound 3184] ({CH2CO}-[hArg]Y(Carboxymethyl)D[Phe(3-Me)]V[Bip]V[Orn][dL][Dab][Cha]VSCG[AEEA]E[12Ado]-OH; thioether N-14) the IC50 was 10.1 nM.
`Cc1cccc(C[C@@H]2NC(=O)[C@H](CC(=O)O)NC(=O)[C@H](Cc3ccc(OCC(=O)O)cc3)NC(=O)[C@H](CCCCNC(=N)N)NC(=O)CSC[C@@H](C(=O)NCC(=O)NCCOCCOCC(=O)N[C@@H](CCC(=O)O)C(=O)NCCCCCCCCCCCC(=O)O)NC(=O)[C@H](CO)NC(=O)[C@H](C(C)C)NC(=O)[C@H](CC3CCCCC3)NC(=O)[C@H](CCN)NC(=O)[C@@H](CC(C)C)NC(=O)[C@H](CCCN)NC(=O)[C@H](CCCNC(N)=O)NC(=O)[C@H](Cc3ccc(-c4ccccc4)cc3)NC(=O)[C@H](C(C)C)NC2=O)c1` [Compound 3185] ({CH2CO}-[hArg]Y(Carboxymethyl)D[Phe(3-Me)]V[Bip][Cit][Orn][dL][Dab][Cha]VSCG[AEEA]E[12Ado]-OH; thioether N-14) was tested, and the IC50 was 17.6 nM.
With `Cc1cccc(C[C@@H]2NC(=O)[C@H](CC(=O)O)NC(=O)[C@H](Cc3ccc(OCC(=O)O)cc3)NC(=O)[C@H](CCCCNC(=N)N)NC(=O)CSC[C@@H](C(=O)N[C@@H](CCCN)C(=O)N[C@@H](CO)C(=O)NCCCCCCCCCCCC(=O)O)NC(=O)[C@H](C(C)O)NC(=O)[C@H](C(C)C)NC(=O)[C@H](CC3CCCCC3)NC(=O)[C@H](CCN)NC(=O)[C@@H](CC(C)C)NC(=O)[C@H](CCCN)NC(=O)[C@H](CCCNC(N)=O)NC(=O)[C@H](Cc3ccc(-c4ccccc4)cc3)NC(=O)[C@H](C(C)C)NC2=O)c1` (stereo partly drawn) [Compound 3187] ({CH2CO}-[hArg]Y(Carboxymethyl)D[Phe(3-Me)]V[Bip][Cit][Orn][dL][Dab][Cha]V[Thr(3ξ)]C[Orn]S[12Ado]-OH; thioether N-14) the IC50 was 9.7 nM.
Work on `Cc1cccc(C[C@@H]2NC(=O)[C@H](CC(=O)O)NC(=O)[C@H](Cc3ccc(OCC(=O)O)cc3)NC(=O)[C@H](CCCCNC(=N)N)NC(=O)CSC[C@@H](C(=O)N[C@@H](CN)C(=O)N[C@@H](CCC(=O)O)C(=O)NCCCCCCCCCCCC(=O)O)NC(=O)[C@H](C(C)O)NC(=O)[C@H](C(C)C)NC(=O)[C@H](CC3CCCCC3)NC(=O)[C@H](CCN)NC(=O)[C@@H](CC(C)C)NC(=O)[C@H](CCCN)NC(=O)[C@H](CCCNC(N)=O)NC(=O)[C@H](Cc3ccc(-c4ccccc4)cc3)NC(=O)[C@H](C(C)C)NC2=O)c1` (stereo partly drawn) [Compound 3188] ({CH2CO}-[hArg]Y(Carboxymethyl)D[Phe(3-Me)]V[Bip][Cit][Orn][dL][Dab][Cha]V[Thr(3ξ)]C[Dap]E[12Ado]-OH; thioether N-14) yielded an IC50 of 302 nM.
